# Test results: PubChem BioAssay (NCI)
# Several values for one entry are separate records, joined by “and”; a condition that tells them apart may be missing. Equal values may be shown once.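 All cell lines were grown in 96-well plates and treated with compound for 48 hours. GI50 = concentration required for 50% inhibition of growth. TGI: total growth inhibition.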 Where a SMILES comes first, the peptide text is derived from it. [ ]: non-standard residue; d: D form. Ac5c = NC1(C(=O)O)CCCC1
# System: IGROV1 ovarian
# Experiment: DTP human tumour cell line panel, 48 h
Structure (SMILES),TGI [µM],GI50 [µM]
O=C1OC(CC(=O)c2ccc(Cl)c(Cl)c2)C(Cl)=C1Cl (stereo not drawn),> 100,–
O=c1ccn(C2OC(CO)C(O)C2F)c(=O)[nH]1 (stereo not drawn),> 1000,> 1000
CC(=O)[O-].CC(=O)[O-].[Pt+2].c1cscn1.c1cscn1,> 100,> 100
O=[N+]([O-])c1cc(Cl)c(Cl)c([N+](=O)[O-])c1Cl,3.02,1.42
CC[C@@H]1OC2(C)CC(S(=O)(=O)c3ccccc3O)CC1O2 (stereo partly drawn),> 100,–
CC(=O)OCC1OC(N2C(=O)C(=O)c3cc(C)ccc32)C(OC(C)=O)C(OC(C)=O)C1OC(C)=O (stereo not drawn),> 100,–
CCN1CCN(C(=O)[C@]23CC[C@@H](C)[C@H](C)[C@@H]2C2=CC[C@@H]4[C@@]5(C)C/C(=C/c6ccncc6)C(=O)C(C)(C)[C@@H]5CC[C@@]4(C)[C@]2(C)CC3)CC1,3.36,1.7
Cc1cc(C)c([O-])c(CN(C)CCN(C)Cc2cc(C)cc(C)c2[O-])c1.O=C([O-])c1cccc(C(=O)[O-])n1.[Ti+4],> 100,3.2
NC1(C(=O)NC2(C(=O)O)CCCC2)CCCC1 (H-[Ac5c]-[Ac5c]-OH),> 100,–
COc1cc(OC)c(/C=C/S(=O)(=O)Cc2cnc(OC)c(N)c2)c(OC)c1,> 100,< 0.0297
COc1ccc([N+]2=NC(c3ccc([N+](=O)[O-])cc3)=NN(c3ccccc3)C2)cc1,> 100,–
CSc1nc(C)c2c(n1)SCC2,> 10,–
C=CCC(N[C@H](CO)c1ccccc1)c1ccc2ccccc2n1 (stereo partly drawn),> 100,45.9
O=C(/C=C/c1ccc([N+](=O)[O-])o1)N1CCN(Cc2ccccc2)CC1,32.1,–
CC(=O)CC(=O)Nc1ccc2ccccc2c1,> 100,–
CCCCOC(=O)NC(=O)c1cn(CCCOC(=O)CCCCCCCCC(=O)OCCCn2cc(C(=O)NC(=O)OCCCC)c(=O)[nH]c2=O)c(=O)[nH]c1=O,> 100,–
Nc1c(C(=O)c2ccc(Cl)cc2)sc(Nc2ccccc2)c1-c1nc2ccccc2s1,> 100,1.42

# System: HT29 colon
# Experiment: DTP human tumour cell line panel, 48 h
Structure (SMILES),GI50 [µM],TGI
COc1cc(/C=C/C(=O)CC(=O)/C=C/c2cc(OC)c(OC)c(OC)c2)cc(OC)c1OC,3.66,13.6 µM
CO[C@@H]1/C=C\C=C(/C)C(=O)NC2=CC(=O)C(NCCN(C)C)=C(C[C@@H](C)C[C@@H](OC)[C@@H](O)[C@H](C)/C=C(\C)[C@H]1OC(N)=O)C2=O,< 0.01,4.54 µM and 3.96 µM
c1ccc2c(c1)CCC/C2=N\OCC1CO1 (stereo not drawn),–,> 100 µM
COc1ccc(CN(C)c2ccc(CO)c(Cl)c2)cc1,5.5,> 88.3 µM
CC/C(C)=C1\CCC(CN2CCOCC2)C1=O (stereo not drawn),–,39.9 µM
COC(=O)C1C(C(=O)OC)C2(OC)c3ccccc3-c3ccccc3C12 (stereo not drawn),–,> 100 µM
O=C1Nc2ccc(C(=O)c3ccco3)cc2/C1=C/c1cc(Cl)c(O)c(Cl)c1,5.75,> 21.2 µM
O=C1OC(CC(=O)c2ccc(Cl)c(Cl)c2)C(Cl)=C1Cl (stereo not drawn),–,> 100 µM
O=c1ccn(C2OC(CO)C(O)C2F)c(=O)[nH]1 (stereo not drawn),> 1000,> 1000 µM
CC(=O)[O-].CC(=O)[O-].[Pt+2].c1cscn1.c1cscn1,> 100,> 100 µM
O=[N+]([O-])c1cc(Cl)c(Cl)c([N+](=O)[O-])c1Cl,1.18,4 µM
CC(=O)OCC1OC(N2C(=O)C(=O)c3cc(C)ccc32)C(OC(C)=O)C(OC(C)=O)C1OC(C)=O (stereo not drawn),–,> 100 µM
CCN1CCN(C(=O)[C@]23CC[C@@H](C)[C@H](C)[C@@H]2C2=CC[C@@H]4[C@@]5(C)C/C(=C/c6ccncc6)C(=O)C(C)(C)[C@@H]5CC[C@@]4(C)[C@]2(C)CC3)CC1,1.59,4.08 µM
NC1(C(=O)NC2(C(=O)O)CCCC2)CCCC1 (H-[Ac5c]-[Ac5c]-OH),–,> 100 µM
COc1cc(OC)c(/C=C/S(=O)(=O)Cc2cnc(OC)c(N)c2)c(OC)c1,< 0.0185,–
COc1ccc([N+]2=NC(c3ccc([N+](=O)[O-])cc3)=NN(c3ccccc3)C2)cc1,–,> 100 µM
CSc1nc(C)c2c(n1)SCC2,–,> 10 µM
C=CCC(N[C@H](CO)c1ccccc1)c1ccc2ccccc2n1 (stereo partly drawn),> 100,> 100 µM
O=C(/C=C/c1ccc([N+](=O)[O-])o1)N1CCN(Cc2ccccc2)CC1,–,31.5 µM
CC(=O)CC(=O)Nc1ccc2ccccc2c1,–,> 100 µM
CCCCOC(=O)NC(=O)c1cn(CCCOC(=O)CCCCCCCCC(=O)OCCCn2cc(C(=O)NC(=O)OCCCC)c(=O)[nH]c2=O)c(=O)[nH]c1=O,–,> 100 µM

# System: M14 melanoma
# Experiment: DTP human tumour cell line panel, 48 h
Structure (SMILES),GI50 [µM],TGI
COc1cc(/C=C/C(=O)CC(=O)/C=C/c2cc(OC)c(OC)c(OC)c2)cc(OC)c1OC,3.9,40 µM
CO[C@@H]1/C=C\C=C(/C)C(=O)NC2=CC(=O)C(NCCN(C)C)=C(C[C@@H](C)C[C@@H](OC)[C@@H](O)[C@H](C)/C=C(\C)[C@H]1OC(N)=O)C2=O,0.0125,6.51 µM and 4.99 µM
c1ccc2c(c1)CCC/C2=N\OCC1CO1 (stereo not drawn),–,> 100 µM
COc1ccc(CN(C)c2ccc(CO)c(Cl)c2)cc1,22.7,> 95.5 µM
CC/C(C)=C1\CCC(CN2CCOCC2)C1=O (stereo not drawn),–,31.4 µM
COC(=O)C1C(C(=O)OC)C2(OC)c3ccccc3-c3ccccc3C12 (stereo not drawn),–,> 100 µM
O=C1Nc2ccc(C(=O)c3ccco3)cc2/C1=C/c1cc(Cl)c(O)c(Cl)c1,1.45,13.3 µM
O=C1OC(CC(=O)c2ccc(Cl)c(Cl)c2)C(Cl)=C1Cl (stereo not drawn),–,> 100 µM
O=c1ccn(C2OC(CO)C(O)C2F)c(=O)[nH]1 (stereo not drawn),> 1000,> 1000 µM
CC(=O)[O-].CC(=O)[O-].[Pt+2].c1cscn1.c1cscn1,> 100,> 100 µM
O=[N+]([O-])c1cc(Cl)c(Cl)c([N+](=O)[O-])c1Cl,0.642,2.23 µM
CC[C@@H]1OC2(C)CC(S(=O)(=O)c3ccccc3O)CC1O2 (stereo partly drawn),–,> 100 µM
CC(=O)OCC1OC(N2C(=O)C(=O)c3cc(C)ccc32)C(OC(C)=O)C(OC(C)=O)C1OC(C)=O (stereo not drawn),–,> 100 µM
Cc1cc(C)c([O-])c(CN(C)CCN(C)Cc2cc(C)cc(C)c2[O-])c1.O=C([O-])c1cccc(C(=O)[O-])n1.[Ti+4],1.7,> 100 µM
NC1(C(=O)NC2(C(=O)O)CCCC2)CCCC1 (H-[Ac5c]-[Ac5c]-OH),–,> 100 µM
COc1cc(OC)c(/C=C/S(=O)(=O)Cc2cnc(OC)c(N)c2)c(OC)c1,< 0.0173,> 100 µM
CSc1nc(C)c2c(n1)SCC2,–,> 10 µM
C=CCC(N[C@H](CO)c1ccccc1)c1ccc2ccccc2n1 (stereo partly drawn),> 100,> 100 µM
